Measured values as given in the NIST ThermoML archive (doi:10.1016/j.jct.2016.08.038).

How the values were obtained:
[1] = for electrical conductivity: Frequency=0.001 MHz, Alternating current cell with electrodes; for electrical conductivity / speed of sound / kinematic viscosity / mass density / surface tension liquid-gas: Liquid; for speed of sound: Frequency=3 MHz, Sing-around technique in a fixed-path interferometer; for kinematic viscosity: Capillary tube (Ostwald / Ubbelohde) method; for mass density: Vibrating tube method; for surface tension liquid-gas: Drop volume
[2] = Molar enthalpy of transition or fusion; details: DSC
[3] = refractive index (Na D-line) (dimensionless); details: 101.33 kPa, Standard Abbe refractometry, Liquid
[4] = molar heat capacity at constant pressure; details: 101.33 kPa, Small sample (50 mg) DSC, Liquid

CC[n+]1ccccc1.O=S(=O)([O-])C(F)(F)F [1-ethylpyridinium triflate]
[1]
Details | electrical conductivity [S/m] | kinematic viscosity [m2/s] | mass density [kg/m3] | speed of sound [m/s]
293.15 K, 100 kPa | 0.407 | – | – | 1500.4
293.15 K, 101.33 kPa | – | 6.89e-05 | 1409.09 | –
295.65 K, 100 kPa | 0.456 | – | – | 1495
295.65 K, 101.33 kPa | – | 6.14e-05 | 1407.09 | –
298.15 K, 100 kPa | 0.502 | – | – | 1489.1
298.15 K, 101.33 kPa | – | 5.47e-05 | 1405.03 | –
300.65 K, 100 kPa | 0.556 | – | – | 1483.4
300.65 K, 101.33 kPa | – | 4.95e-05 | 1402.96 | –
303.15 K, 100 kPa | 0.613 | – | 1400.91 | 1477.7
303.15 K, 101.33 kPa | – | 4.45e-05 | 1400.9 | –
303.15 K, 5000 kPa | – | – | 1403.53 | –
303.15 K, 10000 kPa | – | – | 1406.14 | –
303.15 K, 15000 kPa | – | – | 1408.69 | –
303.15 K, 20000 kPa | – | – | 1411.17 | –
303.15 K, 25000 kPa | – | – | 1413.58 | –
303.15 K, 30000 kPa | – | – | 1415.93 | –
303.15 K, 35000 kPa | – | – | 1418.22 | –
303.15 K, 40000 kPa | – | – | 1420.44 | –
305.65 K, 100 kPa | 0.676 | – | – | 1471.9
305.65 K, 101.33 kPa | – | 4.02e-05 | 1398.85 | –
308.15 K, 100 kPa | 0.744 | – | – | 1466.3
308.15 K, 101.33 kPa | – | 3.63e-05 | 1396.8 | –
310.65 K, 100 kPa | 0.808 | – | – | 1461.1
310.65 K, 101.33 kPa | – | 3.3e-05 | 1394.77 | –
313.15 K, 100 kPa | 0.872 | – | – | 1455
313.15 K, 101.33 kPa | – | 3.01e-05 | 1392.77 | –
315.65 K, 100 kPa | 0.953 | – | – | 1450
315.65 K, 101.33 kPa | – | 2.75e-05 | 1390.68 | –
318.15 K, 100 kPa | 1.02 | – | – | 1444
318.15 K, 101.33 kPa | – | 2.52e-05 | 1388.63 | –
320.65 K, 100 kPa | 1.13 | – | – | 1438.2
320.65 K, 101.33 kPa | – | 2.31e-05 | 1386.59 | –
323.15 K, 100 kPa | 1.21 | – | – | 1433.2
323.15 K, 101.33 kPa | – | 2.13e-05 | 1384.6 | –
325.65 K, 100 kPa | 1.3 | – | – | 1427.4
325.65 K, 101.33 kPa | – | 1.96e-05 | 1382.5 | –
328.15 K, 100 kPa | 1.39 | – | – | 1421.9
328.15 K, 101.33 kPa | – | 1.82e-05 | 1380.47 | –
330.65 K, 100 kPa | 1.47 | – | – | 1416.1
330.65 K, 101.33 kPa | – | 1.69e-05 | 1378.45 | –
333.15 K, 100 kPa | 1.59 | – | – | 1410.6
333.15 K, 101.33 kPa | – | 1.57e-05 | 1376.42 | –
335.65 K, 100 kPa | 1.68 | – | – | 1405.1
335.65 K, 101.33 kPa | – | 1.46e-05 | 1374.41 | –
338.15 K, 100 kPa | 1.78 | – | – | 1399.7
338.15 K, 101.33 kPa | – | 1.36e-05 | 1372.35 | –

Details | Molar enthalpy of transition or fusion [kcal/mol] | Normal melting temperature [°C] | Triple point temperature [K] | molar heat capacity at constant pressure [J/K/mol] | refractive index | surface tension liquid-gas [mN/m]
[1], 293.15 K | – | – | – | – | – | 42.48
[1], 295.65 K | – | – | – | – | – | 42.36
[1], 298.15 K | – | – | – | – | – | 42.26
[1], 300.65 K | – | – | – | – | – | 42.15
[1], 303.15 K | – | – | – | – | – | 42.08
[1], 305.65 K | – | – | – | – | – | 42.02
[1], 308.15 K | – | – | – | – | – | 41.93
[1], 310.65 K | – | – | – | – | – | 41.83
[1], 313.15 K | – | – | – | – | – | 41.71
[1], 315.65 K | – | – | – | – | – | 41.65
[1], 318.15 K | – | – | – | – | – | 41.55
[1], 320.65 K | – | – | – | – | – | 41.43
[1], 323.15 K | – | – | – | – | – | 41.31
[1], 325.65 K | – | – | – | – | – | 41.22
[1], 328.15 K | – | – | – | – | – | 41.16
[1], 330.65 K | – | – | – | – | – | 41.07
[1], 333.15 K | – | – | – | – | – | 40.95
[1], 335.65 K | – | – | – | – | – | 40.88
[1], 338.15 K | – | – | – | – | – | 40.76
[1], Crystal 1, DTA | – | 16 | – | – | – | –
[1], Crystal 2, DSC | – | – | 260.4 | – | – | –
[2], Crystal 1 | 2.75 | – | – | – | – | –
[2], Crystal 2 | 0.167 | – | – | – | – | –
[3], 293.15 K | – | – | – | – | 1.46039 | –
[3], 295.65 K | – | – | – | – | 1.45969 | –
[3], 298.15 K | – | – | – | – | 1.45898 | –
[3], 300.65 K | – | – | – | – | 1.4583 | –
[3], 303.15 K | – | – | – | – | 1.45759 | –
[3], 305.65 K | – | – | – | – | 1.45689 | –
[3], 308.15 K | – | – | – | – | 1.45619 | –
[3], 310.65 K | – | – | – | – | 1.4555 | –
[3], 313.15 K | – | – | – | – | 1.45484 | –
[3], 315.65 K | – | – | – | – | 1.45415 | –
[3], 318.15 K | – | – | – | – | 1.45345 | –
[3], 320.65 K | – | – | – | – | 1.45276 | –
[3], 323.15 K | – | – | – | – | 1.45206 | –
[3], 325.65 K | – | – | – | – | 1.45134 | –
[3], 328.15 K | – | – | – | – | 1.45064 | –
[3], 330.65 K | – | – | – | – | 1.44995 | –
[3], 333.15 K | – | – | – | – | 1.44927 | –
[3], 335.65 K | – | – | – | – | 1.44859 | –
[3], 338.15 K | – | – | – | – | 1.44789 | –
[4], 293.15 K | – | – | – | 348.4 | – | –
[4], 295.65 K | – | – | – | 350.2 | – | –
[4], 298.15 K | – | – | – | 351.8 | – | –
[4], 300.65 K | – | – | – | 353.6 | – | –
[4], 303.15 K | – | – | – | 355.3 | – | –
[4], 305.65 K | – | – | – | 357.1 | – | –
[4], 308.15 K | – | – | – | 358.7 | – | –
[4], 310.65 K | – | – | – | 360.5 | – | –
[4], 313.15 K | – | – | – | 362.1 | – | –
[4], 315.65 K | – | – | – | 363.8 | – | –
[4], 318.15 K | – | – | – | 365.4 | – | –
[4], 320.65 K | – | – | – | 367 | – | –
[4], 323.15 K | – | – | – | 368.7 | – | –
[4], 325.65 K | – | – | – | 370.3 | – | –
[4], 328.15 K | – | – | – | 371.8 | – | –
[4], 330.65 K | – | – | – | 373.5 | – | –
[4], 333.15 K | – | – | – | 375.2 | – | –
[4], 335.65 K | – | – | – | 376.9 | – | –
[4], 338.15 K | – | – | – | 378.6 | – | –
